Measured values as given in patent US12472226B2, “Cell-permeable peptide” (priority 2019, dated 2025).
Non-standard residues stand in square brackets, D forms with d. No end group written: not given here. *: point of attachment. FITC = O=C1OC2(c3ccc(O)cc3Oc3cc(O)ccc32)c2ccc(NC(=S)*)cc21; Ahx = NCCCCCC(=O)O

Columns and labels:
Format in all cases: cell-based, human
Gin-1 cells = experiment: Test of inducing cell-death in vitro (Calcein-AM/PI dead cell rate); conditions: 50 μg/mL, 9 days
Source text: (§1) Human fibrosarcoma-derived HT-1080 cells (HT-1080 cells, JCRB cell bank) were used as cancer cells in the test for monitoring changes in mitochondrial membrane potential. HT-1080 cells, human osteosarcoma cell line Hos cells (Hos cells, JCRB cell bank), human histiocytic lymphoma/macrophage U937 cells (U937 cells, JCRB cell bank), human myeloid leukemia HL-60 cells (HL-60 cells, JCRB cell bank), acute monocytic leukemia THP-1 cells (THP-1 cells, JCRB cell bank), human alveolar basal epithelial adenocarcinoma cell A549 cells (A549 cells, Cell Resource Center for Biomedical Research, Institute of Development, Aging and Cancer, Tohoku University), human pancreatic carcinoma cells (MIA Paca 2 cells, Cell Resource Center for Biomedical Research, Institute of Development, Aging and Cancer, Tohoku University) and well differentiated human liver carcinoma-derived cell line HuH7 cells (HuH7 cells, Cell Resource Center for Biomedical Research, Institute of Development, Aging and Cancer, Tohoku University) were used as cancer cells in an in vitro cell-death induction test of cancer cells and a nuclear transport test of Example 2. Normal human gingival fibroblast cells Gin-1 (Gin-1 cells, DS Pharma Biomedical) were used as a control. The above-described cells were each inoculated into a 96-well culture plate (Falcon) at 5,000 cells/[…] and subjected to the following tests.
(§2) The peptide of SEQ ID NO: 1 labeled with FITC (Example 2) was used for the test of inducing cell-death in vitro in cancer cells. It was prepared the test example to which 100 μL of Example 2 and further 10% FBS were added and cultured for 9 days under conditions of 200 μL of serum-supplemented medium (Alpha modification of Eagle's MEM (α-MEM) (Thermo Fisher Scientific)+10% FBS). Furthermore, it was also produced the test example that was cultured for 21 days with the whole amount of Example 2-supplemented medium replaced every 7 days. As a control, the cells were cultured in a serum-supplemented medium (α-MEM+10% FBS) without addition and were used. A supernatant was removed after the completion of the culture. The cells were washed once with PBS and stained in PBS to which a fluorescent dye for living cell staining Calcein-AM (DOJINDO LABORATORIES) (final concentration: 0.1 μg/mL) and a fluorescent dye for dead cell staining Propidium Iodide (PI) (DOJINDO LABORATORIES) (final concentration: 0.3 μg/mL) were added, at 37° C. in a 5% CO2 cell incubator for 30 minutes. The living cells and dead cells were separately stained with Calcein-AM and PI, respectively and imaged with the confocal laser scanning microscope LSM800. Next, the dead cell rate relative to the number of total cells was analyzed using ImageJ.
(§3) The results are represented by the average value of the dead cell rate (the number red cells stained with IP/the number of total cells×100(%))±standard deviation (SD). In FIG. 2A, the vertical axis represents the rate of cell death when each cell was cultured with Example 2 (50 μg/mL) for 9 days and the horizontal axis represents various types of cells. The increase in the dead cell rate of the Gin-1 cells was not observed.

HL-60 cells = experiment: as above; conditions: 50 μg/mL, 9 days
Source text: as §1, §2, §3

THP-1 cells = experiment: as above; conditions: 50 μg/mL, 9 days
Source text: as §1, §2, §3

Hos cells = experiment: as above; conditions: 50 μg/mL, 9 days
Source text: as §1, §2, §3

U937 cells = experiment: as above; conditions: 50 μg/mL, 9 days
Source text: as §1, §2, §3

HT-1080 cells = experiment: as above; conditions: for increase in the dead cell rate: day 21
Source text: as §1, §2, §3
The concentrations of Examples 2 and 4 to 6 were adjusted to 12.5, 25, 50 and 100 μg/mL, respectively and then administrated to the HT-1080 cells for 9 days tested by the same method as in Test Example 2A. The cell staining and subsequent analyses of the dead cell rate relative to the number of total cells were performed in the same manner as Test Example 2A.

HuH7 cells = experiment: Test on nuclear transport (confocal Z scan, DAPI); conditions: 50μ/mL, 23 days
Source text: as §1
(§4) Similarly, 50μ/mL of Example 2 was added to the A549, MIA Paca2 and HuH7 cells. The cells were cultured for 23 days and then scanned by the Z scan technique using the confocal laser scanning microscope LSM800 after dyed with DAPI. FIG. 5B is each photograph of XY, XZ and YZ cross sections that were merged with Example 2 (green) and DAPI (blue) in the variety of cancer cells. As a result, the color of the images merged with Example 2 and DAPI dye took on light blue.

MIA Paca2 cells = experiment: Test on nuclear transport (confocal Z scan, DAPI); conditions: 50μ/mL, 23 days
Source text: as §1, §4

A549 cells = experiment: Test on nuclear transport (confocal Z scan, DAPI); conditions: 50μ/mL, 23 days
Source text: as §1, §4

## Example 2: peptide of SEQ ID NO: 1 labeled with FITC, bound via an Ahx linker at the N-terminus ({FITC}-[Ahx]KDNRGNLLQCVCTGNGRGEWKC; cysteine pairing not given here)
Gin-1 cells
  increase in the dead cell rate vs control: not observed
HL-60 cells
  increase in the dead cell rate vs control: significant difference at the level of 1%
THP-1 cells
  increase in the dead cell rate vs control: significant difference at the level of 5%
Hos cells
  increase in the dead cell rate vs control: significant difference at the level of 1%
U937 cells
  increase in the dead cell rate vs control: significant difference at the level of 1%
HT-1080 cells; 6.25 μg/mL
  increase in the dead cell rate: ≥ 75%
HT-1080 cells; 12.5 μg/mL
  increase in the dead cell rate: ≥ 75%
HT-1080 cells; 25 μg/mL
  increase in the dead cell rate: ≥ 95%
HT-1080 cells; 50 μg/mL, 9 days
  increase in the dead cell rate vs control: significant difference at the level of 1%
HT-1080 cells; 50 μg/mL
  increase in the dead cell rate: ≥ 95%
HT-1080 cells; 100 μg/mL
  increase in the dead cell rate: ≥ 95%
HuH7 cells
  intracellular localization: transfer to a nucleus and bind to a chromosome DNA
MIA Paca2 cells
  intracellular localization: transfer to a nucleus and bind to a chromosome DNA
A549 cells
  intracellular localization: transfer to a nucleus and bind to a chromosome DNA
